Results on 1 compound are retold here after patent publication US8318950B2, “N-acyl amino acid derivatives, a method for the preparation thereof, a pharmaceutical composition and use thereof as anti-allergic, anti-inflammatory and hypolipidemic agents” (Otkrytoe Aktsionernoe Obschestvo-Otechestvennye Lekarstva, priority 2005, dated 2012).

What all share (format): in vivo, guinea pig
In experiment [1] the test system is allergic rhinitis in guinea pigs. The experiment is described as follows: Model of allergic rhinitis in guinea pigs (nasal wash-off cytology). Conditions: 0.1% solution, inhalations daily for 6 days. The procedure:
The model of allergic rhinitis in guinea pigs was used.
Guinea pigs were immunized according to the certain scheme for 1.5-2 months (Hutson P. A., Church M. K. et al. 1988): the animals were first immunized by intraperitoneal administration of ovalbumin at dose 10 mg/kg at 7-day interval (twice), then ovalbumin solution was inhaled to the guinea pigs using the Pari nebulizer at increasing concentration beginning from 0.1% and reaching 1% at 4-day intervals between inhalations. The last ovalbumin dose was administered into the nasal passages using a micropipette. 24 hours post the last ovalbumin administration nasal washing was collected (through a system of special tubes) and changes in nasal mucosa was assessed using a complex of histological and cytological methods. The compounds tested (0.1% solution) were daily administered in the form of inhalations using nebulizing device for 6 days; at day 6 of administration, antigen (OA) challenge was performed. Nasal wash-off was obtained 24 hours post challenge.

For experiment [2], the system named is allergic pneumonitis in guinea pigs. Put plainly: Model of allergic pneumonitis in guinea pigs (broncho-alveolar wash-off cytology). Conditions: 0.1% solution, inhalations daily for 6 days. The procedure:
The model of allergic pneumonitis in guinea pigs was used.
Immunization of the animals was similar to that described in Example 7.
24 hours post the last ovalbumin administration broncho-alveolar wash-off was collected (through a cannula inserted into the trachea), and changes in bronchial mucosa was assessed using a complex of histological and cytological methods.
The compounds tested (0.1% solution) were daily administered in the form of inhalations using a nebulizing device for 6 days; at day 6 of administration, antigen (OA) challenge was performed.
Broncho-alveolar wash-off was obtained in rats and guinea pigs under hexenal anesthesia by double washing the lungs through the trachea with 10 ml normal saline. Viability of cells was determined in the test with tryptane blue. Absolute number of cells in 1 ml (cytosis) was determined in the broncho-alveolar wash-off liquid (BAW) using the Goryaev's chamber. In the smears of the BAW liquid precipitate obtained using centrifugation at 200 g for 10 minutes and then stained according to Romanovskcy-Gimza, endopulmonary cytogram was calculated (in percent) [Avtsyn A. P., Lukomskij G. I., Romanova L. K. et al. Endopul'monal'naya cytogramma.//Sov. Med. 1982. No 7. pp. 8-14].

Experiment [3] relates to endogenous hypercholesterolemia in guinea pigs. Put plainly: Model of endogenous hypercholesterolemia in guinea pigs (fat loading). Conditions: during 20 days, doses from 50 to 1,500 μg/kg.

As for `O=C(O)CCCC(=O)N[C@@H](Cc1c[nH]cn1)C(=O)O` [Compound IV, N^α-glutaryl-L-histidine], in experiment [1], the “Absolute number of Macrophags in nasal wash-off” value is 6.1 ± 0.75 in 1 μl, the “Absolute number of Neutrophils in nasal wash-off” value was determined as 3.1 ± 1.02 in 1 μl and the “Citogram of nasal wash-off: Lymphocytes” value turned out to be 5.7 ± 1.54%. Also, in experiment [1] (wash-off 24 hours post challenge), the “Cytosis (absolute number of cells in 1 μl) in nasal wash-off” value was found to be 43.7 ± 6.65°* cells in 1 μl. Besides, in experiment [2], the “Absolute number of Macrophags in broncho-alveolar wash-off” value was 640.1 ± 57.98 in 1 μl and the “Cytosis (absolute number of cells in 1 μl) in broncho-alveolar wash-off” value was 1331.3 ± 277.4 cells in 1 μl. Also, the “lowering total cholesterol level at different doses (FIG. 1)” value in experiment [3] was “practically similarly effective in lowering total cholesterol level”.
